Consider one molecule from patent US20220409578A1, “FUNCTIONALIZED 1,3-BENZENE DIOLS AND THEIR METHOD OF USE FOR THE TREATMENT OF RADIATION DERMATITIS AND OTHER SKIN DISORDERS” (KANNALIFE SCIENCES, INC., priority 2019, published 2022).

For data set [1], the system named is human 3D cornea-like EPIOCULAR
Briefly: Eye irritation, EPIOCULAR reconstructed cornea-like model, OECD 492 (MTT). The note with it: human, 30 min. Type of data set: cell-based. The method, then: Ocular irritancy: The purpose of this study was to evaluate any potential ocular irritation activity of KLS-13022 formulations compared to vehicle-only treated tissues in vitro on human 3D cornea-like EPIOCULAR by topical application according to OECD 492 protocol. Test formulations of KLS-13022 up to 3% w/v in 60:40 ethanol:water vehicle were prepared fresh before use. EPIOCULAR tissues were acclimated before treatments for 24 hours and later treated topically for 30 minutes with KLS-13022 (0.01, 0.1, 0.3 1, 3% w/v). Methyl acetate was used as positive eye irritant control. Tissue viability levels were measured by MTT reduction assay method after material treatments. The levels of tissue viability after each material treatment was compared to vehicle control group to determine any potential ocular irritation activity.
Average levels of tissue viability were calculated for each treatment group. According to OECD 492 protocol, predicted positive eye irritation activities were determined when obtaining <60% tissue viability. […] Primary cornea-like inserts were used from human origin and purchased from MatTek (Ashland, Mass.). […] Tissues were cultured with standard conditions (37° C., 95% v/v air, 5% v/v CO2) and acclimated for 18+3 hours before dosing procedures.

A short description of data set [2]: Antioxidant capacity (ABTS/metmyoglobin assay). Type of data set: biochemical. The conditions noted are these: OD 750 nm, 15 minutes after hydrogen peroxide. As for the experimental part:
Antioxidant capacity: The purpose of this study was to evaluate the overall antioxidant capacity of KLS-13022 for the ability to inhibit the oxidation of ABTS. (2,2′-Azino-di-[3-ethylbenzthiazoline sulphonate]) to ABTS.^+ by metmyoglobin. Ascorbic acid (Vitamin C) was used as positive antioxidant control in the assay. The testing involved the suppression of optical density (OD) at 750 nm to a degree, which is proportional to an effective oxidation inhibition. Neat solutions were prepared for materials formulated in HPLC-grade water (ascorbic acid) or 200-proof ethanol (KLS-13022). Serial dilutions were prepared for each material and mixed with metmyoglobin enzyme in assay buffer solution. All samples were compared to vehicle-only treated samples used as negative oxidation inhibition. Optical density changes at 750 nm were evaluated 15 minutes after addition of hydrogen peroxide to each sample. Average absorbance was calculated and plotted for each sample concentration. Effective antioxidant inhibition activity based on the change of absorbance of blank (vehicle-only) sample (no material added). […] The Antioxidant assay kit was obtained from Cayman Chemical Co. (Ann Arbor, Mich.). The assay consisted in the evaluation of the overall antioxidant capacity of test materials for the ability to inhibit the oxidation of ABTS. to ABTS.^+ by metmyoglobin. […]

Data set [3] deals with human dermal fibroblast cells. In kind it is cell-based. The note with it: 24 h. The method, then:
Primary dermal fibroblasts cells of human origin were cultured in vitro using standard conditions (37° C., 95% v/v air, 5% v/v CO2). Primary dermal fibroblasts from neonatal donor were used from human origin and purchased from Thermo-Fisher (Cat No. […]). […] Cells were cultured until the second passage and then acclimated for 48 hours before UVA irradiation and dosing procedures conducted in 24-well plates. On Day 3, test materials were dosed to cell culture media and pre-incubated for 6 hours. Treatment media was then removed and replaced with phosphate buffer saline (PBS) without test materials and Ultraviolet-A (UV-A) was irradiated at 12.5 J/cm^2 using FS-20/T-12 bulbs (315-400 nm). After UV-A irradiation, PBS was replaced with fresh DMEM medium with test materials and incubated for 18 hours at standard culture conditions. After incubation, culture medium supernatants were harvested and used to measure human IL-6 levels by ELISA method. In vitro dosing route was selected to test the activity of KLS-13022 after pro-inflammatory inducer UV-A irradiation, since isolated human cell culture provide direct activity indication and specific cell-type effects. Human cells were selected as relevant to cell types within skin tissues for this development program. […] Absorbance was measured at 490 nm using plate reader and cell viability was calculated as a percent of control. […]

The test system of data set [4] is human dermal microvascular endothelial cells. In kind it is cell-based. The note with it: 6 h. As for the experimental part: Dermal Microvascular endothelial cells of human origin were cultured in vitro using standard conditions (37° C., 95% v/v air, 5% v/v CO2). Human cells were selected as relevant to cell types within skin tissues for this development program. Cell culture methods are commonly used in non-clinical studies conducted on pharmaceutical products. […] Cells were cultured until the third and fourth passage and then acclimated for 24 hours before Nickel induction and dosing procedures. Cell treatment groups were identified using appropriate 96-well plates. The test and control articles were administered to medium containing 1 mM NiSO4 in triplicates. The negative control group received vehicle-only (0.1% v/v final) dose. A fixed 0.1 μL/well from 1000× stock dose volume was administered to 100 μL of media to each cell culture well on Day 2 and incubated for 6 hours at 37 degrees. These cell cultures were also utilized to determine the concentrations of test agent that were non-toxic after 24 hours of incubation. Cell Viability assays were conducted using MTS reduction assays (Promega) diluted 1:5 in DMEM+10% FBS media as specified by the manufacturer. Absorbance was measured at 490 nm using plate reader and cell viability was calculated as a percent of control. This assay was done along with all culture systems that were utilized to study cytokine release. […]

Usually EC50 stands for the concentration at which the effect is half-maximal. High values mean weaker potency, low ones greater potency.

Turning to `C=C(C)[C@@H]1CCC(C)=C[C@H]1c1c(O)cc(CC2CN(C(=O)OCC)C2)cc1O` [KLS-13022, ethyl 3-(3,5-dihydroxy-4-((1R,6R)-3-methyl-6-(prop-1-en-2-yl)cyclohex-2-enyl)benzyl)azetidine-1-carboxylate], in data set [1], the tissue viability is recorded as no less than 60%. Besides, the EC50 in data set [2] was found to be 25.6 µM. The non-toxic concentration range in data set [3] was no more than 1.67 µM; in data set [4], no more than 12 µM. Moreover, the toxic concentration in data set [3] is 3.3 µM.
